# Laboratory results as given in patent US20100247551A1, “Use of Lipocalin 2 in the Regulation of Insulin Sensitivity” (priority 2006, published 2010).
# Key:
# [1] = system: Lcn2 expression in 3T3-L1 adipocytes; experiment: Lcn2 mRNA expression in mature 3T3-L1 adipocytes (Q-PCR); assay type: cell-based, mouse; details: Dex 1 μM or TNF 4 ng/μL (FIG. 1)
# Experimental: Mature 3T3-L1 adipocytes were treated with Dex (1 μM) or TNF (4 ng/μL) in the presence or absence of rosiglitazone (Rosi; 1 μM), and Lcn2 mRNA levels were measured by Q-PCR. Data presented as mean±SD, *p<0.05, ***p=0.005 relative to no Rosi.
# H4IIe hepatocytes = experiment: Insulin resistance in H4IIe hepatocytes (glucose production, glucose-6-phosphatase mRNA expression); assay type: cell-based; details: liganded Lcn2 10 nM, with or without insulin 100 nM (FIG. 6)
# Experimental: FIG. 6A: Left, Glucose production induced by liganded Lcn2 (10 nM) or Dex (250 nM) in the presence or absence of insulin (100 nM). Right, effect of liganded Lcn2 (10 nM) or Dex (250 nM) on glucose-6-phosphatase mRNA expression in the presence or absence of insulin (100 nM). FIG. 6B: Dose response of liganded Lcn2 on glucose-6-phosphatase expression. FIG. 6C: Effect of apo-Lcn2 on glucose-6-phosphatase expression. For all panels, mean±SD, p<0.05, **p<0.01, n=3.
Molecule,Lcn2 expression [1],"insulin resistance (glucose production, glucose-6-phosphatase expression) (H4IIe hepatocytes)"
TNF-α,dramatically induced,–
"recombinant Lcn2: exogenous recombinant lipocalin 2 protein (protein, UniProt P80188 21-198, looked up) Neutrophil …: QDSTSDLIPAPPLSKVPLQQNFQDNQFQGKWYVVGLAGNAILREDKDPQKMYATIYELKEDKSYNVTSVLFRKKKCDYWIRTFVPGCQPGEFTLGNIKSYPGLTSYLVRVVSTNYNQHAMVFFKKVSQNREYFKITLYGRTKELTSELKENFIRFSKSLGLPENHIVFPVPIDQCIDG",–,induces insulin resistance
